From article PMC7284125, “Identification of annotated bioactive molecules that impair motility of the blood fluke Schistosoma mansoni” (International Journal for Parasitology: Drugs and Drug …, 2020)
Like-named read-outs stand apart in the source and are kept apart here.

Assays:
[1] = test system: S. mansoni schistosomulae; test: Phenotypic primary screen assay on schistosomulae (phenotype; viability by methylene blue dye exclusion); assay type: cell-based, Schistosoma mansoni
Procedure, shortened: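 Parasites lacking contraction/relaxation cycles and showing dark internal granulations counted as dead. Movement and body shape were compared with DMSO-treated controls under a stereo microscope at 24 h and at five days of exposure. Larvae came from infected snails shed under light for 2 h at 32 °C.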

[2] = test system: S. mansoni schistosomulae; test: Motility assay on schistosomulae (pixel displacement, relative to DMSO control); assay type: cell-based, Schistosoma mansoni; conditions: for activity at 1 µM: Schistosoma mansoni, read-out: Fractional motility
Procedure, shortened: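 Mechanically transformed S. mansoni schistosomulae (200/well) in Opti-MEM with 5% dialyzed FBS were exposed to compounds at 1 and 10 μM for 24 h at 37 °C, 5% CO2. Motility filmed at 10 frames/s for 1 min and quantified by pixel displacement relative to DMSO-treated controls.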

S. mansoni adult worms = test: Motility assay on adult parasites (pixel displacement, relative to DMSO control); assay type: cell-based, Schistosoma mansoni; conditions: 10 μM
Procedure, shortened: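 Unpaired adult worms from mice 6 weeks post-infection kept in OPTI-MEM with 5% dialyzed FBS and exposed to compounds at 1 and 10 μM for 24 h. Motility filmed 1 min at 10 frames/s, quantified by pixel displacement versus DMSO-treated worms; recovery followed up to five days after washout.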

SmD2 = SmD2 (Schistosoma mansoni, UniProt G4LUJ1); test: cell-based; assay type: cell-based
Sequence of SmD2 (G4LUJ1 entry or part of it): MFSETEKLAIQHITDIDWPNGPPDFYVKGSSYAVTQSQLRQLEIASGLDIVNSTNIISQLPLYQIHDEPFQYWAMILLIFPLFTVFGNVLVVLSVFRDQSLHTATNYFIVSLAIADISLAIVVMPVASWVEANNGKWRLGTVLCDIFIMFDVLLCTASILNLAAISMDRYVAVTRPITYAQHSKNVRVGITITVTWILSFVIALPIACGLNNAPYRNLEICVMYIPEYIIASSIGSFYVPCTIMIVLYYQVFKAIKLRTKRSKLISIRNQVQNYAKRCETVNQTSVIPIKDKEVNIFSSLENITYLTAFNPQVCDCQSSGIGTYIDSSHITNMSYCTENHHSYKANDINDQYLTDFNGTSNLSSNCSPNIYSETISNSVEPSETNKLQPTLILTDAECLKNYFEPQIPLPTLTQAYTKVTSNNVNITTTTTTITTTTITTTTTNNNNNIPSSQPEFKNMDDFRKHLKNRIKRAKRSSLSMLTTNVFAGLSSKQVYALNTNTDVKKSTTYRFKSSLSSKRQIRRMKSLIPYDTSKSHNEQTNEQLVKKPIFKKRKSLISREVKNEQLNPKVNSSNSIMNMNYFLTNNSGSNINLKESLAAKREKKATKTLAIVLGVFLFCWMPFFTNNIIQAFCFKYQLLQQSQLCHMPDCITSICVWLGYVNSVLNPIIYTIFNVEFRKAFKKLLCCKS

[3] = test system: S. mansoni schistosomulae; test: Phenotypic primary screen assay on schistosomulae (phenotype; viability by methylene blue dye exclusion); assay type: cell-based; conditions: Schistosoma mansoni; three-day-old schistosomulae, 10 μM, 24 h; calculated 5 days post compound exposure; read-out: Viability (%)
human CaSR = test system: human CaSR; set-up: method as in Nemeth et al., 2001; conditions: ref Nemeth et al., 2001; cited from earlier work
[4] = set-up: method as in Rybczynska et al., 2006; conditions: 1 mg/kg, normotensive rats; ref Rybczynska et al., 2006; cited from earlier work

SMILES: CC(C)(Cc1ccc2ccccc2c1)NC[C@@H](O)COc1cccc(Cl)c1C#N [NPS-2143]
- effect on viability of schistosomulae in words ([1]; 24 h incubation, five days): no effect on viability
- Phenotype ([1]; three-day-old schistosomulae, 10 μM, 24 h, estimated 5 days post compound exposure): big, granulated
- Fractional motility ([2]; 1h, D1, 10 µM): -0.86
- Fractional motility ([2]; 1h, D5, 10 µM): -0.00164
- Fractional motility ([2]; 3h, D1, 10 µM): 0.27
- Fractional motility ([2]; 3h, D5, 10 µM): -0.84
- Fractional motility ([2]; 6h, D1, 10 µM): 14.69
- Fractional motility ([2]; 6h, D5, 10 µM): -0.27
- Fractional motility ([2]; NPS-2143 and analogs, 24h, D1, 1 µM): -0.50
- Fractional motility ([2]; NPS-2143 and analogs, 24h, D1, 10 µM): 49.26
- Fractional motility ([2]; NPS-2143 and analogs, 24h, D5, 1 µM): -0.09
- Fractional motility ([2]; NPS-2143 and analogs, 24h, D5, 10 µM): -0.99
- activity at 1 µM ([2]; 120 h, Selleckchem customized library secondary screen, 24h, D5, 1 µM): -9%
- activity at 1 µM ([2]; Selleckchem customized library secondary screen, 24h, D1, 1 µM): -50%
- Fractional motility ([2]; Selleckchem customized library secondary screen, 24h, D1, 10 µM): 49.26
- Fractional motility ([2]; Selleckchem customized library secondary screen, 24h, D5, 10 µM): -0.99
- hypermotility relative to control ([2]; schistosomulae, after 24 h incubation): up to 50 fold
- motility phenotype in words ([2]; schistosomulae, long-term, five days after compound washout): complete paralysis
- Fractional motility (S. mansoni adult worms; adult female worms, D1): -0.33
- Fractional motility (S. mansoni adult worms; adult female worms, D5): -0.92
- Fractional motility (S. mansoni adult worms; adult male worms, D1): -0.52
- Fractional motility (S. mansoni adult worms; adult male worms, D5): -0.30
- Fractional motility (S. mansoni adult worms; secondary screen, D1, Female adult worms): -0.33
- Fractional motility (S. mansoni adult worms; secondary screen, D1, Male adult worms): -0.52
- Fractional motility (S. mansoni adult worms; secondary screen, D5, Female adult worms): -0.92
- Fractional motility (S. mansoni adult worms; secondary screen, D5, Male adult worms): -0.30
- inhibition at 10 µM (SmD2; HEK293, SmD2 cells, 10 μM compound, 50 μM EPN, read-out: inhibition of EPN-evoked luminescence): 91.1%
- IC50 (SmD2; inhibition of EPN-evoked luminescence, concentration-response assay, read-out: IC50): 0.00253 ± 0.00028 µM
- viability at 10 µM [3]: 82%
- IC50 (human CaSR): 0.043 µM
- effect on blood pressure [4]: significantly increases blood pressure
